The values that follow come from US8003615B2, “Stable vitamin B6 derivative” (Daiichi Fine Chemical Co., Ltd., priority 2003, dated 2011).

Common to all, as to assay type: physicochemical
Data set [1] can be described thus: Light stability in a lotion. Here is the method:
Ceramide formulation (0.1 g), 1,3-butylene glycol (2.5 g), dipropylene glycol (2.5 g), and methylparaben (0.01 g) were warmed at 80° C. and stirred until the mixture became transparent. The mixture was cooled to 35° C., then added with 0.1 g of a vitamin B6 derivative (pyridoxine 3-β-D-glucoside, pyridoxine 3-β-D-glucoside hydrochloride, or pyridoxine 3,4-cyclic sodium phosphate: in Test Examples 11 to 16 mentioned below, the “vitamin B6 derivative” means one of these three kinds of substances) or 0.1 g of pyridoxine 3-sodium sulfate, 1.0 g of sorbitol-fermented polysaccharide and 90 ml of purified water with stirring, and the mixture were stirred until the added substances were dissolved. The solution was adjusted to pH 6.4 with 10% aqueous citric acid, and made into a volume of 100 ml with purified water to prepare a lotion. In this preparation, precipitates and the like were not observed. The prepared lotion in a volume of 6 ml was filled in a glass bottle, and exposed to light of a D65 fluorescent lamp at a total illumination of 0, 60,000, 180,000, or 300,000 lux·hr, and then the vitamin B6 derivative was quantified. The same sample was separately stored at 50° C., and after 0 day, 14 days, one month, and two months, the vitamin B6 derivative was quantified by the HPLC method described in Test Example 1.

A short description of data set [2]: Light stability in a drinking water. Here is the method:
Glucose (4.6 g), Aspartame (0.01 g), citric acid (0.1 g), sodium chloride (0.02 g), potassium chloride (0.02 g), magnesium chloride (0.01 g), calcium lactate (0.04 g), vitamin B6 derivative (0.01 g), sodium L-aspartate (0.07 g), sodium L-glutamate (0.02 g), L-arginine (0.02 g), and aromatic (0.1 g) were dissolved in purified water (70 ml), and then made into a volume of 100 ml with purified water to prepare a drinking water. In this preparation, precipitates and the like were not observed. The prepared drinking water in a volume of 6 ml was filled in a glass bottle, and exposed to light of a D65 fluorescent lamp at a total illumination of 0, 60,000, 180,000, or 300,000 lux·hr, and then the vitamin B6 derivative was quantified by the HPLC method in the same manner as in Test Example 1.

Data set [3] can be described thus: Light stability in a dog food. Here is the method:
A vitamin B6 derivative (0.1 g) was added to wheat flour (10 g), and uniformly mixed. The mixture was further successively added with breast meat of chicken (40.0 g), soybean protein (30.0 g), glucose (5.0 g), citric acid (0.001 g), sodium chloride (1.0 g), copper sulfate (0.01 g), iron sulfate (0.01 g), sorbic acid (0.3 g), and propylene glycol (5.0 g), and uniformly mixed. The mixture was made 100 g with purified water, and uniformly mixed to prepare dog food.
The prepared dog food in an amount of 5 g was put into a petri dish, and exposed to light of a D65 fluorescent lamp at a total illumination of 0, 60,000, 180,000, or 300,000 lux·hr, and then the vitamin B6 derivative was quantified by the HPLC method in the same manner as in Test Example 11 mentioned above.

Data set [4] in a line: Test for change in formulation: powder mixed with calcium pantothenate. The following applies: 40° C. and 75% humidity, one month. Here is the method: Calcium pantothenate (1 g) and a vitamin B6 derivative (1 g) was uniformly mixed in a mortar to prepare a sample in the form of a powder for stability test. The sample placed in an opened glass bottle was stored in an oven at 40° C. under 75% humidity. Appearance of the sample was examined by visual inspection after 0 day, 14 days, and one month, and the vitamin B6 derivative and calcium pantothenate were quantified by the HPLC method in the same manner as in Test Example 11 mentioned above, provided that the detection wavelength for calcium pantothenate was 210 nm.

The mark [5] stands for this setting: D65 fluorescent lamp, 180,000 lux·hr for 3 days.
[6] abbreviates: D65 fluorescent lamp, 300,000 lux·hr for 5 days.

In the case of `Cc1ncc(CO)c(CO)c1O.Cl` [pyridoxine hydrochloride], the “remained substance in lotion after irradiation” value is 42% in data set [1] (lotion pH 6.4, D65 fluorescent lamp, 180,000 lux·hr for 3 days) and 30% in data set [1] (lotion pH 6.4, D65 fluorescent lamp, 300,000 lux·hr for 5 days). In addition, the “remained substance in drinking water after irradiation” value amounted to 68% in data set [2] (setting [5]) and 56% in data set [2] (setting [6]). Further, the results for the “remained substance in dog food after irradiation” value in data set [3] (setting [5]) and in data set [3] (setting [6]) were 90% and 85%, respectively. Besides, the “remained calcium pantothenate in the formulation with the substance” value in data set [4] (powder 1 g + 1 g calcium pantothenate) is reported as 81%. In addition, in data set [4] (powder, visual inspection), the “appearance of the formulation with calcium pantothenate” value is “the white appearance became brown, and blocking and deliquescence were observed”.
